Reference: PubChem BioAssay AID248 (DTP/NCI, 2004)
Values joined by “and” are separate entries in the source; they are usually repeats but may differ in a detail not shown here. Identical values can stand only once. Toxic doses and inconclusive results are not listed. Cut-off read from the data, not from the text of the source: active = T/C of 150% or more; inactive = T/C below 125%.

System: L1210 leukemia ip in BDF1 mice, survival T/C
Experiment: NCI In Vivo Anticancer Drug Screen. Data for tumor model L1210 Leukemia (intraperitoneal) in B6D2F1 (BDF1) mice
Conditions: endpoint: mean survival time, higher = longer survival
In short: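 Value reflects the ratio of survival in compound-treated mice to survival in vehicle-treated controls, with both groups carrying the same transplanted tumor.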

[1] = dose: 25.0 mg/kg/injection, schedule: Q01DX009 (ip), vehicle: Klucel (hydroxypropylcellulose) (HPC)
[2] = dose: 100.0 mg/kg/injection, schedule: Q04DX003 (ip), vehicle: other
[3] = dose: 200.0 mg/kg/injection, schedule: Q04DX003 (ip), vehicle: other
[4] = dose: 100.0 mg/kg/injection, schedule: Q01DX009 (ip), vehicle: Klucel (hydroxypropylcellulose) (HPC)
[5] = dose: 100.0 mg/kg/injection, schedule: Q01DX001 (ip), vehicle: saline
[6] = dose: 200.0 mg/kg/injection, schedule: Q01DX001 (ip), vehicle: saline
[7] = dose: 400.0 mg/kg/injection, schedule: Q01DX001 (ip), vehicle: saline
[8] = dose: 200.0 mg/kg/injection, schedule: Q01DX001 (ip), vehicle: carboxymethylcellulose (CMC)
[9] = dose: 400.0 mg/kg/injection, schedule: Q01DX001 (ip), vehicle: carboxymethylcellulose (CMC)

Measured: T/C

[Cl][Rh][Cl].c1cn[nH]c1.c1cn[nH]c1.c1cn[nH]c1.c1cn[nH]c1
inactive: dose: 12.5 mg/kg/injection, schedule: Q01DX009 (ip), vehicle: Klucel (hydroxypropylcellulose) (HPC) 98 % of control | dose: 12.5 mg/kg/injection, schedule: Q04DX003 (ip), vehicle: Klucel (hydroxypropylcellulose) (HPC) 90 % of control | [1] 89 % of control | dose: 25.0 mg/kg/injection, schedule: Q04DX003 (ip), vehicle: Klucel (hydroxypropylcellulose) (HPC) 95 % of control | dose: 50.0 mg/kg/injection, schedule: Q04DX003 (ip), vehicle: Klucel (hydroxypropylcellulose) (HPC) 102 % of control

CC(C)(C)c1ccc(C(=O)O)cc1Br
inactive: dose: 50.0 mg/kg/injection, schedule: Q04DX003 (ip), vehicle: other 104 % of control | [2] 113 % of control | [3] 98 % of control

C/C(=C\c1ccccc1)C(=O)c1ccccc1
inactive: dose: 6.25 mg/kg/injection, schedule: Q01DX009 (ip), vehicle: water 109 % of control | dose: 12.5 mg/kg/injection, schedule: Q01DX009 (ip), vehicle: water 107 % of control | dose: 25.0 mg/kg/injection, schedule: Q01DX009 (ip), vehicle: water 101 % of control and 91 % of control | dose: 50.0 mg/kg/injection, schedule: Q01DX009 (ip), vehicle: water 95 % of control and 112 % of control | [4] 93 % of control | dose: 100.0 mg/kg/injection, schedule: Q01DX009 (ip), vehicle: other 113 % of control | dose: 100.0 mg/kg/injection, schedule: Q01DX009 (ip), vehicle: water 101 % of control and 106 % of control | dose: 100.0 mg/kg/injection, schedule: Q04DX002 (ip), vehicle: Klucel (hydroxypropylcellulose) (HPC) 100 % of control | [2] 101 % of control | dose: 200.0 mg/kg/injection, schedule: Q01DX009 (ip), vehicle: Klucel (hydroxypropylcellulose) (HPC) 98 % of control | dose: 200.0 mg/kg/injection, schedule: Q01DX009 (ip), vehicle: other 101 % of control | dose: 200.0 mg/kg/injection, schedule: Q01DX009 (ip), vehicle: water 104 % of control and 107 % of control | dose: 200.0 mg/kg/injection, schedule: Q04DX002 (ip), vehicle: Klucel (hydroxypropylcellulose) (HPC) 92 % of control | [3] 101 % of control | dose: 400.0 mg/kg/injection, schedule: Q01DX009 (ip), vehicle: Klucel (hydroxypropylcellulose) (HPC) 105 % of control | dose: 400.0 mg/kg/injection, schedule: Q01DX009 (ip), vehicle: other 108 % of control | dose: 400.0 mg/kg/injection, schedule: Q01DX009 (ip), vehicle: water 106 % of control | dose: 400.0 mg/kg/injection, schedule: Q04DX002 (ip), vehicle: Klucel (hydroxypropylcellulose) (HPC) 95 % of control | dose: 400.0 mg/kg/injection, schedule: Q04DX003 (ip), vehicle: other 100 % of control

O=C(COc1cccc(Cl)c1)NCc1cccc(NC(=O)c2cccc(S(=O)(=O)F)c2)c1
inactive: dose: 100.0 mg/kg/injection, schedule: Q01DX001 (ip), vehicle: gum acacia 97 % of control | dose: 200.0 mg/kg/injection, schedule: Q01DX001 (ip), vehicle: gum acacia 93 % of control | dose: 400.0 mg/kg/injection, schedule: Q01DX001 (ip), vehicle: gum acacia 98 % of control

N#CCCN(CCC#N)C(=O)Nc1cccc(Cl)c1
inactive: dose: 100.0 mg/kg/injection, schedule: Q04DX003 (ip), vehicle: saline with Tween-80 98 % of control | dose: 200.0 mg/kg/injection, schedule: Q04DX003 (ip), vehicle: saline with Tween-80 88 % of control | dose: 400.0 mg/kg/injection, schedule: Q04DX003 (ip), vehicle: saline with Tween-80 91 % of control

O=C(OCC1OCOC1C1OCOC1COC(=O)c1ccccc1)c1ccccc1 (stereo not given)
inactive: [5] 96 % of control | [6] 94 % of control | [7] 88 % of control

O=C(NC(CSC(c1ccccc1)c1ccccc1)C(=O)O)OCc1ccccc1 (stereo not given)
inactive: [1] 103 % of control | dose: 50.0 mg/kg/injection, schedule: Q01DX009 (ip), vehicle: Klucel (hydroxypropylcellulose) (HPC) 100 % of control | [4] 100 % of control and 88 % of control | dose: 100.0 mg/kg/injection, schedule: Q04DX003 (ip), vehicle: Klucel (hydroxypropylcellulose) (HPC) 93 % of control | dose: 200.0 mg/kg/injection, schedule: Q04DX003 (ip), vehicle: Klucel (hydroxypropylcellulose) (HPC) 95 % of control | dose: 400.0 mg/kg/injection, schedule: Q04DX003 (ip), vehicle: Klucel (hydroxypropylcellulose) (HPC) 89 % of control

C[CH2][Ge]1([CH2]C)[CH2]CC2(C[CH2]1)NC(=O)N(CCCN(C)C)C2O (stereo not given)
inactive: dose: 100.0 mg/kg/injection, schedule: Q04DX002 (ip), vehicle: saline 96 % of control | dose: 200.0 mg/kg/injection, schedule: Q04DX002 (ip), vehicle: saline 100 % of control | dose: 400.0 mg/kg/injection, schedule: Q04DX002 (ip), vehicle: saline 88 % of control

CCOC(CCc1c(C)nc[nH]c1=O)OCC
inactive: dose: 100.0 mg/kg/injection, schedule: Q01DX009 (ip), vehicle: saline 90 % of control | dose: 200.0 mg/kg/injection, schedule: Q01DX009 (ip), vehicle: saline 98 % of control | dose: 400.0 mg/kg/injection, schedule: Q01DX009 (ip), vehicle: saline 95 % of control

C=CCNC(=O)Oc1cccc(NC(=O)C(C)CCC)c1 (stereo not given)
inactive: dose: 100.0 mg/kg/injection, schedule: Q01DX009 (ip), vehicle: saline with Tween-80 101 % of control | dose: 200.0 mg/kg/injection, schedule: Q01DX009 (ip), vehicle: saline with Tween-80 95 % of control | dose: 400.0 mg/kg/injection, schedule: Q01DX009 (ip), vehicle: saline with Tween-80 108 % of control

C=CC/C=C/CCC
inactive: dose: 50.0 mg/kg/injection, schedule: Q01DX001 (ip), vehicle: carboxymethylcellulose (CMC) 88 % of control | [8] 88 % of control | [9] 90 % of control

Nc1ncnc2c1ncn2C1OC(CO)C(O)C(O)C1O (stereo not given)
inactive: [5] 103 % of control [middle of 4 runs] | [6] 100 % of control [middle of 4 runs] | [7] 100 % of control [middle of 4 runs]

CC(=O)C(N=Nc1nn[nH]n1)C(C)=O
inactive: dose: 100.0 mg/kg/injection, schedule: Q04DX003 (ip), vehicle: saline 104 % of control | dose: 200.0 mg/kg/injection, schedule: Q04DX003 (ip), vehicle: saline 93 % of control | dose: 400.0 mg/kg/injection, schedule: Q04DX003 (ip), vehicle: saline 96 % of control

COc1ccc(/C=C\C(=O)OCCCCOC(=O)/C=C/c2ccc(OC)cc2)cc1
inactive: dose: 50.0 mg/kg/injection, schedule: Q01DX001 (ip), vehicle: saline 95 % of control | [5] 95 % of control | [6] 95 % of control | [7] 95 % of control

O=C(Nc1cc2c3ccccc3ccc2c2ccccc12)C(F)(F)F
inactive: dose: 100.0 mg/kg/injection, schedule: Q01DX001 (ip), vehicle: carboxymethylcellulose (CMC) 91 % of control | [8] 92 % of control | [9] 97 % of control

O=C(CBr)OCS(=O)(=O)O
inactive: dose: 75.0 mg/kg/injection, schedule: Q01DX001 (ip), vehicle: saline 102 % of control | dose: 150.0 mg/kg/injection, schedule: Q01DX001 (ip), vehicle: saline 96 % of control | dose: 300.0 mg/kg/injection, schedule: Q01DX001 (ip), vehicle: saline 100 % of control
